Test results reported in patent US8735431B2, “Active compound combinations having insecticidal properties” (priority 2003, dated 2014).

Assays:
Assay type in all cases: in vivo
[1] = test system: Phaedon cochleariae larvae; assay: Phaedon cochleariae larvae test (cabbage leaves dipped)
Description: (§1) To produce a suitable preparation of active compound, 1 part by weight of active compound is mixed with the stated amounts of solvent and emulsifier, and the concentrate is diluted with emulsifier-containing water to the desired concentration.
Cabbage leaves (Brassica oleracea) are treated by being dipped into the preparation of active compound of the desired concentration and are populated with larvae of the mustard beetle (Phaedon cochleariae) while the leaves are still moist.
After the desired period of time, the kill in % is determined. 100% means that all beetle larvae have been killed; 0% means that none of the beetle larvae have been killed. The determined kill ratios are entered into Colby's formula (see page 39).

Spodoptera exigua = Spodoptera exigua test (cabbage leaves dipped)
Description: as §1
Cabbage leaves (Brassica oleracea) are treated by being dipped into the preparation of active compound of the desired concentration and are populated with caterpillars of the beet army worm (Spodoptera exigua) while the leaves are still moist.
(§2) After the desired period of time, the kill in % is determined. 100% means that all caterpillars have been killed; 0% means that none of the caterpillars have been killed. The determined kill ratios are entered into Colby's formula (see page 39).

Heliothis armigera = Heliothis armigera test (soybean shoots dipped)
Description: as §1
Soybean shoots (Glycine max) are treated by being dipped into the preparation of active compound of the desired concentration and are populated with caterpillars of the cotton bollworm (Heliothis armigera) while the leaves are still moist.
as §2

[2] = test system: Plutella xylostella, resistant strain; assay: Plutella xylostella test (resistant strain)
Description: as §1
Cabbage leaves (Brassica oleracea) are treated by being dipped into the preparation of active compound of the desired concentration and are populated with caterpillars of the diamondback moth (Plutella xylostella, resistant strain) while the leaves are still moist.
as §2

Myzus persicae = Myzus persicae test (cabbage leaves dipped); conditions: 20 ppm
Description: as §1
Cabbage leaves (Brassica oleracea) which are heavily infested by the green peach aphid (Myzus persicae) are treated by being dipped into the preparation of active compound of the desired concentration.
After the desired period of time, the kill in % is determined. 100% means that all aphids have been killed; 0% means that none of the aphids have been killed. The determined kill ratios are entered into Colby's formula (see page 39).

Aphis gossypii = Aphis gossypii test (cotton leaves dipped); conditions: 4 ppm
Description: as §1
Cotton leaves (Gossypium hirsutum) which are heavily infested by the cotton aphid (Aphis gossypii) are treated by being dipped into the preparation of active compound of the desired concentration. After the desired period of time, the kill in % is determined. 100% means that all aphids have been killed; 0% means that none of the aphids have been killed. The determined kill ratios are entered into Colby's formula (see page 39).

[3] = test system: Plutella xylostella, normally sensitive strain; assay: Plutella xylostella test (normally sensitive strain)
Description: as §1
Cabbage leaves (Brassica oleracea) are treated by being dipped into the preparation of active compound of the desired concentration and are populated with caterpillars of the diamondback moth (Plutella xylostella, normally sensitive strain) while the leaves are still moist.
as §2

COC(=O)N(C(=O)N1COC2(C(=O)OC)Cc3cc(Cl)ccc3C2=N1)c1ccc(OC(F)(F)F)cc1 (stereo not drawn) [(2-21) indoxacarb, indoxacarb, reference compound]
Kill rate in % after 6d found ([1]; 0.032 ppm): 10%
Kill rate in % after 6d found (Spodoptera exigua; 0.16 ppm): 70%

emamectin [(2-9) emamectin, reference compound]
Kill rate in % after 6d found (Heliothis armigera; 0.00128 ppm): 0%
Kill rate in % after 6d found ([2]; 0.00128 ppm): 40%

CC[S+]([O-])c1c(C#N)nn(-c2c(Cl)cc(C(F)(F)F)cc2Cl)c1N (stereo not drawn) [(2-17) ethiprole, ethiprole, reference compound]
Kill rate in % after 1d found (Myzus persicae): 50%

Cc1cc(Cl)cc(C(=O)NC(C)C)c1NC(=O)c1cc(C(F)(F)F)nn1-c1ncccc1Cl [Example I-1-9]
Kill rate in % after 6d found (Aphis gossypii): 10%
Kill rate in % after 6d found (Heliothis armigera; 0.0064 ppm): 20%
Kill rate in % after 3d found (Heliothis armigera; 0.032 ppm, 3 d): 45%
Kill rate in % after 6d found (Heliothis armigera; 0.032 ppm): 0%
Kill rate in % after 1d found (Myzus persicae): 0%
Kill rate in % after 6d found ([1]; 0.0064 ppm): 0%
Kill rate in % after 6d found ([3]; 0.00128 ppm): 0%
Kill rate in % after 4d found ([3]; 0.16 ppm, 4 d): 0%
Kill rate in % after 4d found ([2]; 0.00128 ppm): 0%
Kill rate in % after 6d found ([2]; 0.032 ppm): 10%
Kill rate in % after 6d found (Spodoptera exigua; 0.0064 ppm): 15%
Kill rate in % after 6d found (Spodoptera exigua; 0.032 ppm): 10%

N#Cc1nn(-c2c(Cl)cc(C(F)(F)F)cc2Cl)c(N)c1[S+]([O-])C(F)(F)F (stereo not drawn) [(2-16) fipronil, fipronil, reference compound]
Kill rate in % after 6d found (Aphis gossypii): 0%
Kill rate in % after 6d found ([3]; 0.0064 ppm): 15%
Kill rate in % after 4d found ([2]; 0.0064 ppm): 0%

O=C(NC(=O)c1c(F)cccc1F)Nc1ccc(Oc2ccc(C(F)(F)F)cc2Cl)cc1F [(2-22) flufenoxuron, flufenoxuron, reference compound]
Kill rate in % after 6d found (Spodoptera exigua; 0.8 ppm): 10%
